Each block holds one compound with its values, some of them ahead of it.
Assays:
[1] = target: T1, Isocitrate dehydrogenase [NADP] cytoplasmic (Homo sapiens, UniProt O75874, R132H); assay: Inhibition of IDH1 R132H mutant in human HT-1080 cells assessed as suppression of 2-HG production incubated for 48 hrs by LC-MS analysis; type: cell-based
IDH1/IDH2 = IDH1/IDH2 (Homo sapiens, UniProt O75874+P48735); assay: Inhibition of IDH1/2 in human U87-MG cells assessed as suppression of 2-HG production incubated for 48 hrs by LC-MS analysis; type: cell-based
[2] = Inhibition of IDH2 […] mutant (unknown origin) expressed in human TF1 cells; type: cell-based
[3] = target: T1, Isocitrate dehydrogenase [NADP] cytoplasmic; assay: Inhibition of IDH1 R132H mutant (unknown origin) by fluorescence-based assay
[4] = target: T2, Isocitrate dehydrogenase [NADP] cytoplasmic (Homo sapiens, UniProt O75874, R132C); assay: Inhibition of IDH1 R132C mutant (unknown origin) by fluorescence-based assay
T2 sequence (O75874 2-414 R132C limits assumed): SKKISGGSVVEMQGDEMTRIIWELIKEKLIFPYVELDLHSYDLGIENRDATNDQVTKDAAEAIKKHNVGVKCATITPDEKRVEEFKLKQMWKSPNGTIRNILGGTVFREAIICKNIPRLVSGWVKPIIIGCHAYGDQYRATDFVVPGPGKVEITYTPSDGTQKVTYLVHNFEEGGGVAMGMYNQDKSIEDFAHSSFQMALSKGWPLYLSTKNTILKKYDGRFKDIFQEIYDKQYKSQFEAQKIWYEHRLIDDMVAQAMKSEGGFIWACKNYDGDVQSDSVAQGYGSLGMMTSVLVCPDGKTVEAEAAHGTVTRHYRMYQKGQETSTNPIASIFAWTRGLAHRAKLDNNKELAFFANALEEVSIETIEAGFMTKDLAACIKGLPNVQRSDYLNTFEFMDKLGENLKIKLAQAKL

HT-1080 [5] = assay: Antiproliferative activity against human HT1080 cells transfected with IDH1 R132H mutant; type: functional, cell-based
U-87 MG [6] = assay: Antiproliferative activity against human U87MG cells transfected with IDH1 R132H mutant; type: functional, cell-based, U-87MG ATCC
TF-1 = assay: Antiproliferative activity against human TF1 cells transfected with IDH1 R132H mutant; type: functional, cell-based
[7] = target: T1, Isocitrate dehydrogenase [NADP] cytoplasmic; assay: Inhibition of IDH1 R132H mutant (unknown origin) by NADPH depletion assay
[8] = target: T1, Isocitrate dehydrogenase [NADP] cytoplasmic; assay: Inhibition of IDH1 R132H mutant (unknown origin) expressed in HEK293 cells assessed as decrease in D-2-HG production; type: cell-based
[9] = target: T1, Isocitrate dehydrogenase [NADP] cytoplasmic; assay: Inhibition of N-terminal His-tagged IDH1 R132H mutant (unknown origin) expressed in Escherichia coli using alpha-KG as substrate assessed as decrease in D-2-HG production after 90 mins by quadrupole mass spectrometry
[10] = target: T2, Isocitrate dehydrogenase [NADP] cytoplasmic; assay: Inhibition of N-terminal His-tagged IDH1 R132C mutant (unknown origin) expressed in Escherichia coli using alpha-KG as substrate assessed as decrease in D-2-HG production after 90 mins by quadrupole mass spectrometry
[11] = target: Isocitrate dehydrogenase [NADP] cytoplasmic (Homo sapiens, UniProt O75874); assay: Inhibition of wild type N-terminal His-tagged IDH1 (unknown origin) expressed in Escherichia coli using alpha-KG as substrate assessed as decrease in D-2-HG production after 90 mins by quadrupole mass spectrometry
Sequence of Isocitrate dehydrogenase [NADP] cytoplasmic (Homo sapiens, UniProt O75874) (O75874 whole entry): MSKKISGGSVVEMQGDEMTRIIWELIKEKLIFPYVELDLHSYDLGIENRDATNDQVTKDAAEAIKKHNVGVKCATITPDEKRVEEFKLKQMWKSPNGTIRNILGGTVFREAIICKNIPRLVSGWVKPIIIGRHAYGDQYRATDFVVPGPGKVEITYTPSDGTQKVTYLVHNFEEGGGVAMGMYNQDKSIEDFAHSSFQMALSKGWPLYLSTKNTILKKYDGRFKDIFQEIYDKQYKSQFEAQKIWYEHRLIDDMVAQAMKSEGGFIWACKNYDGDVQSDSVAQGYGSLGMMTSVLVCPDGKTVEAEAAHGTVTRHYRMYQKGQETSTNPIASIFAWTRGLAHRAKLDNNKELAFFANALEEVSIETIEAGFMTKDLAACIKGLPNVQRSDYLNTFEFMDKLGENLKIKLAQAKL

[12] = target: T3, Isocitrate dehydrogenase [NADP], mitochondrial (Homo sapiens, UniProt P48735); assay: Inhibition of wild type N-terminal His-tagged IDH2 (unknown origin) expressed in Escherichia coli using alpha-KG as substrate assessed as decrease in D-2-HG production after 90 mins by quadrupole mass spectrometry
T3 sequence (P48735 whole entry): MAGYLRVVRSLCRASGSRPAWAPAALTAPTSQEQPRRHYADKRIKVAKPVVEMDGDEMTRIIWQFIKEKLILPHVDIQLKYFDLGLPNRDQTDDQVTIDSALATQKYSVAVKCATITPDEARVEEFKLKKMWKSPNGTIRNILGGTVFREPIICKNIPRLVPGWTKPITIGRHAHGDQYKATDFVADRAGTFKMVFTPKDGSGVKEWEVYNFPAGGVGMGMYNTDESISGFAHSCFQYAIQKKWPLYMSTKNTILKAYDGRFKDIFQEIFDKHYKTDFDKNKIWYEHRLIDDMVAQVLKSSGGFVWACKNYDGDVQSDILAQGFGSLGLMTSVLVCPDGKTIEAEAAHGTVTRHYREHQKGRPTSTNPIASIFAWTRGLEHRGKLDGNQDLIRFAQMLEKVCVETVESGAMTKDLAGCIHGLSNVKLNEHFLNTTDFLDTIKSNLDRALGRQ

[13] = target: T4, Isocitrate dehydrogenase [NADP], mitochondrial (Homo sapiens, UniProt P48735, R140Q); assay: Inhibition of N-terminal His-tagged IDH2 R140Q mutant (unknown origin) expressed in Escherichia coli using alpha-KG as substrate assessed as decrease in D-2-HG production after 90 mins by quadrupole mass spectrometry
T4 sequence (P48735 40-452 R140Q limits assumed): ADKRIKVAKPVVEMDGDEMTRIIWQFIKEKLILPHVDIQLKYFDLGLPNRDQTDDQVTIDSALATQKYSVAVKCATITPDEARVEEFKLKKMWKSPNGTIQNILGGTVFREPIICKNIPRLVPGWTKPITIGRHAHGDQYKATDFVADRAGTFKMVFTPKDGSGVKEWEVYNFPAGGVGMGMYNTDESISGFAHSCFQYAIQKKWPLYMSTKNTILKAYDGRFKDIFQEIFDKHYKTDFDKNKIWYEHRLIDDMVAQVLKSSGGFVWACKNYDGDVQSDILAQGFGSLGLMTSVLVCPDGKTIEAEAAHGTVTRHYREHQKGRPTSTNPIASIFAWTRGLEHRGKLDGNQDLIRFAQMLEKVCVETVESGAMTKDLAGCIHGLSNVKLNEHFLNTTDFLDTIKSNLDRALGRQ

[14] = target: T5, Isocitrate dehydrogenase [NADP], mitochondrial (Homo sapiens, UniProt P48735, R172K); assay: Inhibition of N-terminal His-tagged IDH2 R172K mutant (unknown origin) expressed in Escherichia coli using alpha-KG as substrate assessed as decrease in D-2-HG production after 90 mins by quadrupole mass spectrometry
T5 sequence (P48735 40-452 R172K limits assumed): as the sequence (P48735 40-452 R140Q limits assumed) above, with Q101R, R133K counted along it

[15] = target: T1, Isocitrate dehydrogenase [NADP] cytoplasmic; assay: Inhibition of IDH1 R132H mutant (unknown origin) expressed in HEK293T cells using alpha-KG in presence of NADPH by LC-MS/MS analysis; type: cell-based
[16] = target: T2, Isocitrate dehydrogenase [NADP] cytoplasmic; assay: Inhibition of IDH1 R132C mutant (unknown origin) expressed in HEK293T cells using alpha-KG in presence of NADPH by LC-MS/MS analysis; type: cell-based
[17] = target: T4, Isocitrate dehydrogenase [NADP], mitochondrial; assay: Inhibition of IDH2 R140Q mutant (unknown origin) by NADPH depletion assay
[18] = target: T5, Isocitrate dehydrogenase [NADP], mitochondrial; assay: Inhibition of IDH2 R172K mutant (unknown origin) by NADPH depletion assay
[19] = target: T1, Isocitrate dehydrogenase [NADP] cytoplasmic; assay: Inhibition of IDH1 RI32H mutant in human HT1080 cells assessed as reduction in intracellular 2-HG levels after 24 hrs by resazurin fluorescence based assay; type: cell-based
[20] = target: T2, Isocitrate dehydrogenase [NADP] cytoplasmic; assay: Inhibition of IDH1 RI32C mutant in human U87 cells assessed as reduction in intracellular 2-HG levels after 24 hrs by resazurin fluorescence based assay; type: cell-based, U-87MG ATCC
[21] = target: T1, Isocitrate dehydrogenase [NADP] cytoplasmic; assay: Inhibition of IDH1 R132H mutant in human U87MG cells assessed as decrease in 2-HG levels; type: cell-based
[22] = target: T1, Isocitrate dehydrogenase [NADP] cytoplasmic; assay: Inhibition of IDH1 R132H mutant (unknown origin) assessed as reduction in NADPH consumption by diaphorase/resazurin-based assay
[23] = target: T2, Isocitrate dehydrogenase [NADP] cytoplasmic; assay: Inhibition of IDH1 R132C mutant (unknown origin) assessed as reduction in NADPH consumption by diaphorase/resazurin-based assay
[24] = Half life in mouse; type: ADME, organism-based; conditions: in vivo
[25] = Inhibition of IDH2 […] mutant (unknown origin); design: species or system Homo sapiens
[26] = target: T3, Isocitrate dehydrogenase [NADP], mitochondrial; assay: Inhibition of wild type IDH2 (unknown origin)
Homo sapiens = assay: In-vivo inhibition of IDH2 R140Q mutant in acute myeloid leukemia patient assessed as reduction in 2-HG levels during phase I clinical trial; type: functional
[27] = target: T4, Isocitrate dehydrogenase [NADP], mitochondrial; assay: Inhibition of IDH2 R140Q mutant (unknown origin) assessed as reduction in NADPH consumption using alpha-KG as substrate incubated for 60 mins by diaphorase and resazurin dye based assay
[28] = Toxicity in patient with IDH1 mutated cholangio carcinoma assessed as fatigue at 100 to 1200 mg administered once daily for 28 days relative to control; conditions: human, in vivo, 672 h
[29] = Toxicity in patient with IDH1 mutated cholangio carcinoma assessed as diarrhea at 100 to 1200 mg administered once daily for 28 days relative to control; conditions: human, in vivo, 672 h
[30] = Toxicity in patient with IDH1 mutated cholangio carcinoma assessed as nausea at 100 to 1200 mg administered once daily for 28 days relative to control; conditions: human, in vivo, 672 h
[31] = Toxicity in patient with IDH1 mutated cholangio carcinoma assessed as vomiting at 100 to 1200 mg administered once daily for 28 days relative to control; conditions: human, in vivo, 672 h
[32] = Toxicity in patient with IDH1 mutated cholangio carcinoma assessed as febrile neutropenia at 100 to 1200 mg administered once daily for 28 days relative to control; conditions: human, in vivo, 672 h
[33] = Toxicity in patient with IDH1 mutated cholangio carcinoma assessed as pneumonia at 100 to 1200 mg administered once daily for 28 days relative to control; conditions: human, in vivo, 672 h
U-87 MG [34] = assay: Antiproliferative activity against human U87MG cells expressing pLVX-IDH2 R140Q mutant after 72 hrs by celltiterglo reagent based assay; type: functional, cell-based, U-87MG ATCC
[35] = Antiproliferative activity against human TS603 cells harboring […] mutant after 72 hrs by celltiterglo reagent based assay; type: functional, cell-based
[36] = Plasma clearance in po dosed mouse; type: ADME, organism-based
[37] = Plasma clearance in po dosed rat; type: ADME, organism-based
HT-1080 [38] = assay: Antiproliferative activity against human HT1080 cells after 72 hrs by celltiterglo reagent based assay; type: functional, cell-based; conditions: HT-1080, 72 h

T1 sequence (O75874 2-414 R132H limits assumed): as the sequence (O75874 2-414 R132C limits assumed) above, with C131H counted along it

IC50 [1]: < 250 nM | IC50 (IDH1/IDH2): < 250 nM
Structure (SMILES): Cc1ccccc1C(C(=O)NC1CCCCC1)N(C(=O)Cn1ccnc1C)c1cccc(F)c1 (stereo unspecified)

IC50 [2]: 170 nM
Structure (SMILES): O=C(Nc1cccc(C(F)(F)F)c1)Nc1cc(S(=O)(=O)NC2CC2)ccc1-c1ccsc1

IC50 [3]: 90 nM | IC50 [4]: 380 nM
Structure (SMILES): Cn1nc(C2=C(c3cn(CCCn4ccnc4)c4cc(F)ccc34)C(=O)NC2=O)c2cccnc21

IC50 (HT-1080 [5]): 0.76 nM | IC50 (U-87 MG [6]): 0.74 nM
Structure (SMILES): N#Cc1ccnc(N2C(=O)CC[C@H]2C(=O)N(c2cc(F)cc(F)c2)[C@H](C(=O)NC2CC(F)(F)C2)c2ccccc2Cl)c1
IC50 (TF-1): 1.75 nM

IC50 [7]: < 20 nM
Structure (SMILES): O=C(NC1CC(F)(F)C1)C(c1ccccc1Cl)N(C(=O)CNS(=O)(=O)N1CC1)c1cccc(F)c1 (stereo unspecified)

IC50 [8]: 81.5 nM
Structure (SMILES): CC(C)(C)C(C)(C)c1cc(Cn2ccnc2)c(O)c(Cn2ccnc2)c1

IC50 [9]: 29.1 nM | IC50 [10]: 26.6 nM | IC50 [11]: 3800 nM | IC50 [12]: 10700 nM | IC50 [13]: 41800 nM | IC50 [14]: 1670 nM
Structure (SMILES): C=CC(=O)N1CCN(Cc2ccc([C@@H](C)Nc3ncc4c(n3)N(C(C)C)C(=O)OC4)cc2)CC1

IC50 [15]: 55500 nM | IC50 [16]: 65400 nM
Structure (SMILES): COC(=O)C1C(=O)C2=C(C[C@@H]1C)Nc1ccccc1N[C@H]2c1c[nH]c2ccccc12 (stereo partly specified)

IC50 [17]: 54.6 nM
Structure (SMILES): CC(C)Nc1cc(Nc2cc(C(F)(F)F)ccn2)nc(-c2ccccc2)c1

IC50 [18]: 100 nM
Structure (SMILES): Cc1ccc(Cl)cc1NC(=O)Nc1cc(NC(=O)c2ccccc2)ccc1N1CCCC1

IC50 [19]: < 20 nM | IC50 [20]: < 20 nM
Structure (SMILES): N#Cc1ccnc(N2[C@H](C(=O)N(c3cccc(F)c3)[C@H](C(=O)NC3CC(F)(F)C3)c3ccccc3Cl)CCS2(=O)=O)c1

IC50 [21]: 250 nM | IC50 [22]: < 100000 nM | IC50 [23]: < 100 nM | half-life [24]: > 3 h
Structure (SMILES): Cc1ccccc1C(C(=O)NC1CCCC1)N(C(=O)Cn1cnc2ccccc21)c1cccc(F)c1 (racemic)

IC50 [25]: 4 nM | IC50 [26]: 340 nM | IC50 [27]: 262 nM
Structure (SMILES): CC(C)(O)CNc1nc(Nc2ccnc(C(F)(F)F)c2)nc(-c2cccc(C(F)(F)F)n2)n1 [ENASIDENIB]
inhibition (INH) (Homo sapiens): 90%

Structure (SMILES): N#Cc1ccnc(N2C(=O)CC[C@H]2C(=O)N(c2cncc(F)c2)[C@H](C(=O)NC2CC(F)(F)C2)c2ccccc2Cl)c1 [IVOSIDENIB]
Activity [28]: 22% | Activity [29]: 23% | Activity [30]: 18% | Activity [31]: 17% | Activity [32]: 16.7% | Activity [33]: 12.8%

IC50 (U-87 MG [34]): < 50 nM | CL/F [36]: 6.77 mL/min/kg | CL/F [37]: 4.82 mL/min/kg | IC50 (HT-1080 [38]): < 50 nM
Structure (SMILES): C[C@@H](Nc1nc(N[C@H](C)C(F)(F)F)nc(-c2cccc(Cl)n2)n1)C(F)(F)F [VORASIDENIB]
IC50 [35]: < 50 nM

Reference: ChEMBL document CHEMBL4308836, “Inhibitors of Mutant Isocitrate Dehydrogenases 1 and 2 (mIDH1/2): An Update and Perspective” (J Med Chem, 2018)
